± gives the standard deviation of the averaged measurements.
Assays:
Details in all cases: 72 h
MV4-11 [1] = tested on: MV4-11
In short: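 Fifteen myeloid leukaemia lines were incubated for 72 h at 37 °C with 5% CO2 across five tenfold doses from 1 to 10,000 nM, in duplicate. ATP luminescence was normalised to vehicle and to a positive control at 10 µM and fitted with a four-parameter log-logistic model. The IC50 came from these dose–response fits.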

HL-60 [2] = assay: cell viability (% survival relative to DMSO control); higher = less cytotoxic
In short: (§1)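 For each screen, HL-60 cells in RPMI 1640 with 10% FBS carried either DMSO or 100 nM of one of three metabolic inhibitors while the full library was applied at five tenfold concentrations, 1–10,000 nM, in duplicate. Plates were 384-well and were kept 72 h at 37 °C, 5% CO2. Viability, measured by CellTiter-Glo, was normalised to wells with DMSO and with 10 μM proteasome inhibitor. Where area under the curve appears, it was fitted by four-parameter log-logistic models in drc and PharmacoGx.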

BV-173 = assay: cell viability (% survival relative to DMSO control, bortezomib = 0%); higher = less cytotoxic
In short: (§2)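 Fifteen myeloid leukaemia cell lines (10 AML, 5 CML) were seeded at a density titrated to the linear growth range. They went into 384-well plates with compounds pre-printed at 1, 10, 100, 1000 or 10000 nM in duplicate. After 72 h at 37 °C with 5% CO2, viability was read by CellTiter-Glo luminescence. Values are percent survival, with vehicle set to 100% and a 10 µM positive control to 0%, averaged over the duplicates.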

HEL = assay: as above
In short: as §2

HL-60 [3] = assay: as above
In short: as §2

K-562 = assay: as above
In short: as §2

KCL-22 = assay: as above
In short: as §2

KG-1 = assay: as above
In short: as §2

KU-812 = assay: as above
In short: as §2

LAMA-84 = assay: as above
In short: as §2

ML-2 = assay: as above
In short: as §2

MOLM-13 = assay: as above
In short: as §2

MV4-11 [4] = assay: as above
In short: as §2

Mono-Mac-6 = assay: as above
In short: as §2

NOMO-1 = assay: as above
In short: as §2

SHI-1 = assay: as above
In short: as §2

THP-1 = assay: as above
In short: as §2

HL-60 [5] = assay: area under dose-response curve (viability, 1 nM-10 uM) (fraction (0-1)); higher = more sensitive
In short: as §1

O=[As]O[As]=O (stereo not given) [Arsenic trioxide]
Details | IC50 (cell viability) [µM]
MV4-11 [1] | 4.27

cell viability [%], HL-60 [2]
Details | 0.001 µM | 0.01 µM | 0.1 µM | 1 µM | 10 µM
co-treatment: AZD3965 100 nM | 103 ± 2.1 | 101.5 ± 0.8 | 98.7 ± 1.7 | 102 ± 4 | 82.7 ± 1.2
co-treatment: DMSO vehicle | 98.8 ± 1.9 | 100 ± 1.3 | 97.29 ± 0.59 | 100.5 ± 0.47 | 96.7 ± 6.6
co-treatment: GSK2194069 100 nM | 102 ± 5.6 | 99.1 ± 4.6 | 98.8 ± 2.5 | 99.11 ± 0.97 | 87.09 ± 0.7
co-treatment: pictilisib 100 nM | 94.24 ± 0.0034 | 101 ± 4.8 | 93.6 ± 4.6 | 98.5 ± 6.7 | 63.4 ± 0.69

Details | area under dose-response curve, co-treatment: AZD3965 100 nM | area under dose-response curve, co-treatment: DMSO vehicle | area under dose-response curve, co-treatment: GSK2194069 100 nM | area under dose-response curve, co-treatment: pictilisib 100 nM | cell viability, 1 nM [%] | cell viability, 10 nM [%] | cell viability, 100 nM [%] | cell viability, 1000 nM [%] | cell viability, 10000 nM [%]
BV-173 | – | – | – | – | 96.1 | 97.2 | 105 | 95.5 | 28.4
HEL | – | – | – | – | 98.8 | 102 | 120 | 96.8 | 74.9
HL-60 [3] | – | – | – | – | 108 | 105 | 109 | 96.9 | 55.6
HL-60 [5] | < 0.0301 | < 0.0301 | < 0.0301 | < 0.0301 | – | – | – | – | –
K-562 | – | – | – | – | 91.1 | 93.8 | 105 | 102 | 49.5
KCL-22 | – | – | – | – | 107 | 107 | 102 | 99 | 74.4
KG-1 | – | – | – | – | 103 | 106 | 108 | 97 | 86.4
KU-812 | – | – | – | – | 98.5 | 105 | 112 | 93.4 | 61.5
LAMA-84 | – | – | – | – | 104 | 100 | 109 | 90.2 | 53.2
ML-2 | – | – | – | – | 109 | 96.4 | 103 | 94.9 | 76.2
MOLM-13 | – | – | – | – | 110 | 104 | 124 | 102 | 18.5
MV4-11 [4] | – | – | – | – | 97 | 108 | 104 | 95.1 | 20.4
Mono-Mac-6 | – | – | – | – | 98.2 | 104 | 109 | 102 | 43.2
NOMO-1 | – | – | – | – | 98 | 96 | 110 | 100 | 71.4
SHI-1 | – | – | – | – | 105 | 97.1 | 112 | 94.7 | 57.6
THP-1 | – | – | – | – | 93.9 | 96.1 | 106 | 92.4 | 82.2

CC(C)(F)C[C@H](N[C@@H](c1ccc(-c2ccc(S(C)(=O)=O)cc2)cc1)C(F)(F)F)C(=O)NC1(C#N)CC1 [Odanacatib]
Details | IC50 (cell viability) [µM]
MV4-11 [1] | > 10

cell viability [%], HL-60 [2]
Details | 0.001 µM | 0.01 µM | 0.1 µM | 1 µM | 10 µM
co-treatment: AZD3965 100 nM | 99.32 ± 0.47 | 95.1 ± 11 | 102 ± 1.2 | 96.26 ± 0.29 | 101 ± 3.8
co-treatment: DMSO vehicle | 95.8 ± 6.7 | 98.4 ± 1.8 | 100 ± 1.1 | 95 ± 8.3 | 97.6 ± 0.99
co-treatment: GSK2194069 100 nM | 80.8 ± 23 | 89.4 ± 3.8 | 97.1 ± 2.8 | 90 ± 7.7 | 89.3 ± 6
co-treatment: pictilisib 100 nM | 66.7 ± 44 | 112 ± 12 | 94.9 ± 22 | 96.43 ± 0.2 | 90 ± 15

Details | area under dose-response curve, co-treatment: AZD3965 100 nM | area under dose-response curve, co-treatment: DMSO vehicle | area under dose-response curve, co-treatment: GSK2194069 100 nM | area under dose-response curve, co-treatment: pictilisib 100 nM | cell viability, 1 nM [%] | cell viability, 10 nM [%] | cell viability, 100 nM [%] | cell viability, 1000 nM [%] | cell viability, 10000 nM [%]
BV-173 | – | – | – | – | 85.1 | 104 | 101 | 88.7 | 106
HEL | – | – | – | – | 104 | 107 | 99.9 | 92.7 | 107
HL-60 [3] | – | – | – | – | 143 | 105 | 114 | 118 | 83.3
HL-60 [5] | < 0.0301 | < 0.0301 | < 0.0301 | < 0.0301 | – | – | – | – | –
K-562 | – | – | – | – | 101 | 106 | 104 | 91.8 | 103
KCL-22 | – | – | – | – | 128 | 96.9 | 104 | 93.7 | 122
KG-1 | – | – | – | – | 103 | 99.6 | 95.6 | 107 | 103
KU-812 | – | – | – | – | 94.8 | 87.9 | 99.7 | 91.8 | 99.2
LAMA-84 | – | – | – | – | 104 | 103 | 106 | 89 | 102
ML-2 | – | – | – | – | 107 | 101 | 96.5 | 100 | 101
MOLM-13 | – | – | – | – | 128 | 99.5 | 108 | 96.4 | 117
MV4-11 [4] | – | – | – | – | 109 | 105 | 111 | 97.9 | 112
Mono-Mac-6 | – | – | – | – | 96.4 | 101 | 101 | 99.2 | 85.5
NOMO-1 | – | – | – | – | 99.6 | 100 | 108 | 102 | 100
SHI-1 | – | – | – | – | 109 | 107 | 99.9 | 98.5 | 117
THP-1 | – | – | – | – | 99.2 | 99.6 | 100 | 94.9 | 95.7

Source: the supplement of paper PMC8671470
